Patent US11884710B2, “Peptide compounds and methods of use in wound healing” (priority 2013, dated 2024)

Tested on: PKCδ
Experiment: Immunofluorescence for PKCδ in HCEC monolayers
Assay type: cell-based, human
Settings: PMA 1 μM; 15 minutes; scratched monolayers
Method: HCEC monolayers were grown to confluency and were scratched with a 10 μl pipette tip or left unscratched, and then the monolayers were treated for 15 minutes with (A-B) buffer, (C-D) PMA (1 μM), (E-F) 250 ng/ml CAP37, and (G-J) 500 ng/ml CAP37. Cells were stained for PKCδ (250 ng/ml; (A-H)), and PKCα (1 μg/ml; (I-J)) and detected using immunofluorescence (4 μg/ml, ALEXA FLUOR® 488 dye (Life Technologies Corp., Grand Island, N.Y.)). […] Scratched monolayers that were treated for 18 hours with CAP37 (250 ng/ml; (L)) or left untreated (K) were stained for PKCδ. […] Scale bars, 20 μm.
Immunofluorescence: HCECs and primary HCECs were cultured on Lab-Tek® II glass chamber slides (Nunc, Rochester, N.Y.) and starved overnight in basal media. For wounding studies, monolayers were scratched with a 10 μl pipette tip or left unscratched and treated with 1 μM phorbol 12-myristate 13-acetate (PMA, Sigma-Aldrich), rCAP37 (25-500 ng/ml), or basal KSFM (Gibco) for 15 minutes. After treatment, the cells were fixed in 4% (v/v) formaldehyde solution (Thermo, Rockford, Ill.) in PBS (Gibco) for 20 minutes at room temperature followed by permeabilization in 0.5% TRITON™-X 100 (Mallinckrodt, St. Louis, Mo.) in PBS for 10 minutes. Remaining formaldehyde was quenched with 0.05 M ammonium chloride (NH4Cl, Sigma-Aldrich, St. Louis, Mo.) in PBS for 10 minutes. […]

## CCCCCCCCCCCCCC(=O)O[C@@H]1[C@@H](C)[C@@]2(O)[C@@H](C=C(CO)C[C@]3(O)C(=O)C(C)=C[C@@H]23)[C@@H]2C(C)(C)[C@]12OC(C)=O [PMA, phorbol 12-myristate 13-acetate, reference compound]
  PKCδ staining, in words: increased staining
